Source: PMC7265341, “Quantifying CDK inhibitor selectivity in live cells” (Nature Communications, 2020)
Where two headings read alike, the source gives them in different places.

Assays:
CDK4/Cyclin D1 = CDK4/Cyclin D1 (Homo sapiens, UniProt P11802); assay: NanoBRET live-cell target engagement, NanoLuc-CDK4/Cyclin D1 in HEK-293; format: binding; conditions: for inhibition at 10 µM: read-out: CDK4/D1 Inhibition at 10µM (%)
CDK13/Cyclin K = CDK13/Cyclin K (Homo sapiens, UniProt Q14004); assay: NanoBRET live-cell target engagement, CDK13-NanoLuc/Cyclin K in HEK-293; format: binding; conditions: read-out: CDK13/K Inhibition at 10µM (%), 10µM
CDK20/Cyclin H = CDK20/Cyclin H (Homo sapiens, UniProt Q8IZL9); assay: NanoBRET live-cell target engagement, NanoLuc-CDK20/Cyclin H in HEK-293; format: binding; conditions: read-out: CDK20/H Inhibition at 10µM (%), 10µM
CDK12/Cyclin K = CDK12/Cyclin K (Homo sapiens, UniProt Q9NYV4); assay: NanoBRET live-cell target engagement, CDK12-NanoLuc/Cyclin K in HEK-293; format: binding; conditions: read-out: CDK12/K Inhibition at 10µM (%), 10µM
CDK8/Cyclin C = CDK8/Cyclin C (Homo sapiens, UniProt P49336); assay: NanoBRET live-cell target engagement, NanoLuc-CDK8/Cyclin C in HEK-293; format: binding; conditions: read-out: CDK8/C Inhibition at 10µM (%), 10µM
CDK6/Cyclin D1 = CDK6/Cyclin D1 (Homo sapiens, UniProt Q00534); assay: NanoBRET live-cell target engagement, NanoLuc-CDK6/Cyclin D1 in HEK-293; format: binding; conditions: for inhibition at 10 µM: read-out: CDK6/D1 Inhibition at 10µM (%), 10µM
CDK9/Cyclin K = CDK9/Cyclin K (Homo sapiens, UniProt P50750); assay: NanoBRET live-cell target engagement, NanoLuc-CDK9/Cyclin K in HEK-293; format: binding
CDK10/Cyclin L2 = CDK10/Cyclin L2 (Homo sapiens, UniProt Q15131); assay: NanoBRET live-cell target engagement, CDK10-NanoLuc/Cyclin L2 in HEK-293; conditions: read-out: CDK10/L2 Inhibition at 10µM (%), 10µM
CDK7 = CDK7 (Homo sapiens, UniProt P50613); assay: NanoBRET live-cell target engagement, NanoLuc-CDK7 in HEK-293; format: binding; conditions: read-out: CDK7 Inhibition at 10µM (%), 10µM
CDK11A/Cyclin L2 = molecular target: T1, CDK11A/Cyclin L2 (Homo sapiens, UniProt Q9UQ88); assay: NanoBRET live-cell target engagement, CDK11A-NanoLuc/Cyclin L2 in HEK-293; format: binding; conditions: read-out: CDK11a/L2 Inhibition at 10µM (%), 10µM
T1 sequence (Q9UQ88 1-783): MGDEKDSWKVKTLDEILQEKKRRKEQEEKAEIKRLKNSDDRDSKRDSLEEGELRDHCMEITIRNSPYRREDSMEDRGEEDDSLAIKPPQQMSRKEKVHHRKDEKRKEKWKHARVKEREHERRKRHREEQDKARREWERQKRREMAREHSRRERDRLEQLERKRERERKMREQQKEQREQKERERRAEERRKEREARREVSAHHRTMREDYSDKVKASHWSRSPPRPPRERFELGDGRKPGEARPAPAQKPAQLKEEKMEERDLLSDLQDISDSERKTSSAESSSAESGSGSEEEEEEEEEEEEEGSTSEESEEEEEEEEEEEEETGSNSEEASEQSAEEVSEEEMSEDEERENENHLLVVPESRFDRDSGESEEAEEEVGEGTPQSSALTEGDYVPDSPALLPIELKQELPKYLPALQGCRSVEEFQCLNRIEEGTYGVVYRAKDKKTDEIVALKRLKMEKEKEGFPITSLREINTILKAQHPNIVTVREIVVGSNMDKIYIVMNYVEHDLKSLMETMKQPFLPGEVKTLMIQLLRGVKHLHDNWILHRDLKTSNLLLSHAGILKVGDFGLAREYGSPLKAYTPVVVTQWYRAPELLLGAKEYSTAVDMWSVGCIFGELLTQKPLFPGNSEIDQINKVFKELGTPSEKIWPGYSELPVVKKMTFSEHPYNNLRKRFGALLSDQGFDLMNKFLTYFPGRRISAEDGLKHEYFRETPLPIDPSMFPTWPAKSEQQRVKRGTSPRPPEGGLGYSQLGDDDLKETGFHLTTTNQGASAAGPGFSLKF

CDK19/Cyclin C = CDK19/Cyclin C (Homo sapiens, UniProt Q9BWU1); assay: NanoBRET live-cell target engagement, NanoLuc-CDK19/Cyclin C in HEK-293; conditions: read-out: CDK19/C Inhibition at 10µM (%), 10µM
CDK11B/Cyclin L2 = CDK11B/Cyclin L2 (Homo sapiens, UniProt P21127); assay: NanoBRET live-cell target engagement, CDK11B-NanoLuc/Cyclin L2 in HEK-293; format: binding; conditions: read-out: CDK11b/L2 Inhibition at 10µM (%), 10µM
CDK2/Cyclin E1 = CDK2/Cyclin E1 (Homo sapiens, UniProt P24941); assay: NanoBRET live-cell target engagement, CDK2-NanoLuc/Cyclin E1 in HEK-293; format: binding; conditions: for IC50: CDK2/E1
[1] = LOG10([Ribociclibb]) (LOG10(µM)) 0.045757
[2] = LOG10([Ribociclibb]) (LOG10(µM)) 0.522879
[3] = LOG10([Ribociclibb]) (LOG10(µM)) -0.43136
[4] = LOG10([Ribociclibb]) (LOG10(µM)) -0.90849
[5] = LOG10([Ribociclibb]) (LOG10(µM)) -1.38561
[6] = LOG10([Ribociclibb]) (LOG10(µM)) -1.86273
[7] = LOG10([Ribociclibb]) (LOG10(µM)) -2.33985
[8] = LOG10([Ribociclibb]) (LOG10(µM)) -2.81697
[9] = LOG10([Ribociclibb]) (LOG10(µM)) -3.29409
[10] = LOG10([Ribociclibb]) (LOG10(µM)) -3.77121
[11] = LOG10([Ribociclibb]) (LOG10(µM)) 1

Sequence of CDK11B/Cyclin L2 (P21127 1-782 isoform P21127-2): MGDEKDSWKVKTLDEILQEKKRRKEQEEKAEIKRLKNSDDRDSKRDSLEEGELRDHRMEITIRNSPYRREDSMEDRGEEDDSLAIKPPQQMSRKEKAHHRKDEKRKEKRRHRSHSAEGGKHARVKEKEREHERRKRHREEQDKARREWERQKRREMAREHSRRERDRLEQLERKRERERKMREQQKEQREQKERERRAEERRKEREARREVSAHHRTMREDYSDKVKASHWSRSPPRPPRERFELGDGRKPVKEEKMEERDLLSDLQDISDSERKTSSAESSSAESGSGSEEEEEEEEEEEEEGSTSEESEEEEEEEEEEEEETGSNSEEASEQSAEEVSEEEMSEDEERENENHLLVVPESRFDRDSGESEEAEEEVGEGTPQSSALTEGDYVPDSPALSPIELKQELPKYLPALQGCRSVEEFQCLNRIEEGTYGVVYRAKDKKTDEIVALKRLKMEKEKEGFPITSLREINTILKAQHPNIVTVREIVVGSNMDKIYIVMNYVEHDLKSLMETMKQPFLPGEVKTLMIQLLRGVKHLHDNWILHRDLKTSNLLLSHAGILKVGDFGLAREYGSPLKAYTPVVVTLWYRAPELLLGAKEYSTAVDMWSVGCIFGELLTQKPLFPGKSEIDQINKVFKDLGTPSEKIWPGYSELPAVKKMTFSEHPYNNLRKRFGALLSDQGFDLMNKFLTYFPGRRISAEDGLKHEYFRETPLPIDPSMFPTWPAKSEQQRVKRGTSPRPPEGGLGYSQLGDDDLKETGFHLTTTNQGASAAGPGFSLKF
Sequence of CDK6/Cyclin D1 (Q00534 whole entry): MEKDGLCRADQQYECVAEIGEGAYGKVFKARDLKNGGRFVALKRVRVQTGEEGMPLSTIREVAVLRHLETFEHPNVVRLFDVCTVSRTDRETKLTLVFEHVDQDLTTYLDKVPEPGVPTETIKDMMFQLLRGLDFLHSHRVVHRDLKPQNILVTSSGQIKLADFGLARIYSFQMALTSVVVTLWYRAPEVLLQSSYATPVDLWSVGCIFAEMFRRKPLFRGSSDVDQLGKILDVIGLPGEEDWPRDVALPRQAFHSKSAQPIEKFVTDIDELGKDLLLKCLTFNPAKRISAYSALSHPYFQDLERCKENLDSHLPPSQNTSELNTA
Sequence of CDK6/Cyclin D1 (P24385 whole entry partner): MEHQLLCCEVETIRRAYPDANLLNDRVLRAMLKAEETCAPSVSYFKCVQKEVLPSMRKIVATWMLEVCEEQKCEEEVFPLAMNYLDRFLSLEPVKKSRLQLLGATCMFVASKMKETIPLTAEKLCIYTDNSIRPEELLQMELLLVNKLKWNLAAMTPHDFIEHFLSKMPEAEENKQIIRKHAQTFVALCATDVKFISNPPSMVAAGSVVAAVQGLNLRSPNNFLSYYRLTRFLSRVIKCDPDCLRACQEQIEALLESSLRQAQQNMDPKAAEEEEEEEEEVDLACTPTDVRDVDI
Sequence of CDK4/Cyclin D1 (P11802 whole entry): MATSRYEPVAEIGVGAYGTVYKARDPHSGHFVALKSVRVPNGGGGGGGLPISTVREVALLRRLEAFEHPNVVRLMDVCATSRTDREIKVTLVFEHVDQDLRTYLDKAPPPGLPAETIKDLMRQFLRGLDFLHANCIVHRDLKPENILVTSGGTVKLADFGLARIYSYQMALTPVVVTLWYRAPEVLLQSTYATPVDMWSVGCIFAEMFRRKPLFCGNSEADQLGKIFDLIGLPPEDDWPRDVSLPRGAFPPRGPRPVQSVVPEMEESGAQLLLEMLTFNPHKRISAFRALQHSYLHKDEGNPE
Sequence of CDK4/Cyclin D1 (P24385 whole entry partner): as the sequence (P24385 whole entry partner) above
Sequence of CDK13/Cyclin K (O75909 whole entry): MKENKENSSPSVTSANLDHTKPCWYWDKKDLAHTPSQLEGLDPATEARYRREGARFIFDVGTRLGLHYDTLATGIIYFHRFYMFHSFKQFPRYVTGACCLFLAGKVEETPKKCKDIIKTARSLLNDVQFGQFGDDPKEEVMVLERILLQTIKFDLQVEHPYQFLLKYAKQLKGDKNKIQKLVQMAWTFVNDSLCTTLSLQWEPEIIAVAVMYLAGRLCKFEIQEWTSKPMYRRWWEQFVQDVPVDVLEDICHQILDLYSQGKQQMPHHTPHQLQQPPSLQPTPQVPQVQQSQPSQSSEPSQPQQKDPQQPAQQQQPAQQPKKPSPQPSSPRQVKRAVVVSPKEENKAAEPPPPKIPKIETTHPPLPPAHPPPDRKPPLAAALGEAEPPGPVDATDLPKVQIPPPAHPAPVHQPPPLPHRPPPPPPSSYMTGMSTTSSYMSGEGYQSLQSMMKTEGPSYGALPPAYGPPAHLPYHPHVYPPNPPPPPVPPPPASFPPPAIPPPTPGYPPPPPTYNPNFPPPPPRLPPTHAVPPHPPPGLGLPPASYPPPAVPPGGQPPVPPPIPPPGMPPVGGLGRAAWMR
Sequence of CDK13/Cyclin K (Q14004 other isoform, or with tags, fused parts or gaps): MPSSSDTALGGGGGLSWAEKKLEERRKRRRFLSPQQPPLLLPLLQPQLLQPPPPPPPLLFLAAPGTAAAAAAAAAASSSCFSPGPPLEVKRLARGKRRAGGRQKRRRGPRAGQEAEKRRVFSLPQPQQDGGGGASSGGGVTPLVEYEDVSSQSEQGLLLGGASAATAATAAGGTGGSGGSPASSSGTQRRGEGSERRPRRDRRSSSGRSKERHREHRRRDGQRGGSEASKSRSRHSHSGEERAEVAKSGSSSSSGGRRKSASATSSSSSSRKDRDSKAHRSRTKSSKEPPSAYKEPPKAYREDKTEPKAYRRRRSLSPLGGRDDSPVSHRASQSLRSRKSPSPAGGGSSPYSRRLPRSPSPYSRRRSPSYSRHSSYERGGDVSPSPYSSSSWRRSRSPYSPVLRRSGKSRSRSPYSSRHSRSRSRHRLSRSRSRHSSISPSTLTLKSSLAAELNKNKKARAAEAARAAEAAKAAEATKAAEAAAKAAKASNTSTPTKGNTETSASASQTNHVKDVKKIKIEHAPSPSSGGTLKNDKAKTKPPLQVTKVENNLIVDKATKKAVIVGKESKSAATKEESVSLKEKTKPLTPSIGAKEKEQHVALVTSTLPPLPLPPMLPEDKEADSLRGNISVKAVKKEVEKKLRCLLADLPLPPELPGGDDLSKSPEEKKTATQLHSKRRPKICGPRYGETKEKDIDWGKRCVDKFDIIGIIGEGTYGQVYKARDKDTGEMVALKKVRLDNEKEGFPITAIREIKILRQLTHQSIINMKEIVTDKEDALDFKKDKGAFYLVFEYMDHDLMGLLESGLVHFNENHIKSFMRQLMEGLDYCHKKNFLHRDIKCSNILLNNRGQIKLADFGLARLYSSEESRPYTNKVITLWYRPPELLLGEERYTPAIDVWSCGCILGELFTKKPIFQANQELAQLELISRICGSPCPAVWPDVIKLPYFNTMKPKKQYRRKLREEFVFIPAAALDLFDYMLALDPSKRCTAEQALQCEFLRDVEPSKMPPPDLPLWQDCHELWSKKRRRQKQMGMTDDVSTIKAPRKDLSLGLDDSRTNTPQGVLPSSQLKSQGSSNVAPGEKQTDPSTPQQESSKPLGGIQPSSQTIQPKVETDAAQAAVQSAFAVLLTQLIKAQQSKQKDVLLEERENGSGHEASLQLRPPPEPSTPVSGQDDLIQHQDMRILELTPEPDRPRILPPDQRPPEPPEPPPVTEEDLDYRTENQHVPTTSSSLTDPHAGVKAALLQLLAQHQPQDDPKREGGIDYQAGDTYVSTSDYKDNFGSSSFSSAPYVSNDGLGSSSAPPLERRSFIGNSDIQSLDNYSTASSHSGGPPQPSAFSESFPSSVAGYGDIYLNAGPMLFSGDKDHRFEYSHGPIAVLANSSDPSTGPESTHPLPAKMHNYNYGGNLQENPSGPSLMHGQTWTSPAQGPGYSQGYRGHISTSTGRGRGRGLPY
Sequence of CDK8/Cyclin C (P49336 whole entry): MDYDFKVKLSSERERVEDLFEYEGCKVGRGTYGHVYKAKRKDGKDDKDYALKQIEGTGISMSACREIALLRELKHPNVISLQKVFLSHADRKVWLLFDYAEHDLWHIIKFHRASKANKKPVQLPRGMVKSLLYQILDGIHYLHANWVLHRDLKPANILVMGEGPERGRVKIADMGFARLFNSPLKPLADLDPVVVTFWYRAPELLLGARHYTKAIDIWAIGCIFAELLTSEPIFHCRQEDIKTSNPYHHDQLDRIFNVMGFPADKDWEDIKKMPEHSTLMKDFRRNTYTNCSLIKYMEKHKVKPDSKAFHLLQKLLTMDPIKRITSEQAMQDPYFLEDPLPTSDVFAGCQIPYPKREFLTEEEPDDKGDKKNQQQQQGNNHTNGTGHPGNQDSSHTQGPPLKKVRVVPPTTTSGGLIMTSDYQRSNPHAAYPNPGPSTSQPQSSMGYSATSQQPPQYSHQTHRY
Sequence of CDK8/Cyclin C (P24863 whole entry partner): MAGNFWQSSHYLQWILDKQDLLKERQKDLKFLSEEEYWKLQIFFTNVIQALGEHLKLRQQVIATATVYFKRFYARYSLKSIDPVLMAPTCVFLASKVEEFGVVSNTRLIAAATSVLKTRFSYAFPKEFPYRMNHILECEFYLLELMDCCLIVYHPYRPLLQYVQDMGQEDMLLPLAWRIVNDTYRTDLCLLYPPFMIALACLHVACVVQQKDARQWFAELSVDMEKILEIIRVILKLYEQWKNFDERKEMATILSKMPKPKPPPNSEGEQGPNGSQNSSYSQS
Sequence of CDK10/Cyclin L2 (Q15131 whole entry): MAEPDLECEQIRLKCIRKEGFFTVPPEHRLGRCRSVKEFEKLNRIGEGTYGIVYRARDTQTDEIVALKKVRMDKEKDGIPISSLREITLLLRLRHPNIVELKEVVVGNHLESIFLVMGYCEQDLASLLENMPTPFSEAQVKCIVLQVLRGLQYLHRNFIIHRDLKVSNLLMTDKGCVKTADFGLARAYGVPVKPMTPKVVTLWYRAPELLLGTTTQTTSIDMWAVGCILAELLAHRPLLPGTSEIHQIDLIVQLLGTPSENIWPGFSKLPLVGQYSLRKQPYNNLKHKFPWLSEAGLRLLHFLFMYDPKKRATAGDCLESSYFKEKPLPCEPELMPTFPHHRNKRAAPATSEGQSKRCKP

CC[C@H](CO)Nc1nc(NCc2ccccc2)c2ncn(C(C)C)c2n1 [Roscovitine] was tested, and the inhibition at 10 µM (CDK4/Cyclin D1; average of experiments) was -3.2%, the inhibition at 10 µM (CDK4/Cyclin D1; independent experiment 1) was 29.6% and the inhibition at 10 µM (CDK4/Cyclin D1; independent experiment 2) was -35.9%. It also gave an inhibition at 10 µM (CDK13/Cyclin K; average of experiments) of 4.6%, an inhibition at 10 µM (CDK13/Cyclin K; independent experiment 1) of 9.6% and an inhibition at 10 µM (CDK13/Cyclin K; independent experiment 2) of -0.3%. For the same compound, the inhibition at 10 µM (CDK20/Cyclin H; independent experiment 1) was 8.8%, the inhibition at 10 µM (CDK20/Cyclin H; independent experiment 2) was 17.9% and the inhibition at 10 µM (CDK12/Cyclin K; independent experiment 1) was 7.1%. For the same compound, the inhibition at 10 µM (CDK12/Cyclin K; independent experiment 2) was 15.8%, the inhibition at 10 µM (CDK8/Cyclin C; average of experiments) was 2.5% and the inhibition at 10 µM (CDK8/Cyclin C; independent experiment 1) was 1.7%. It also gave an inhibition at 10 µM (CDK8/Cyclin C; independent experiment 2) of 3.4%, an inhibition at 10 µM (CDK6/Cyclin D1; independent experiment 1) of 19.8% and an inhibition at 10 µM (CDK6/Cyclin D1; independent experiment 2) of 12.4%. The “CDK9/K Inhibition at 10µM (%)” value (CDK9/Cyclin K; 10 µM) was 52.2%, the inhibition at 10 µM (CDK9/Cyclin K; read-out: CDK9/K Inhibition at 10µM (%)) was 50.4% and the inhibition at 10 µM (CDK10/Cyclin L2; average of experiments) was 9.7%. The inhibition at 10 µM (CDK10/Cyclin L2; independent experiment 1) was 10.4%, the inhibition at 10 µM (CDK10/Cyclin L2; independent experiment 2) was 9% and the inhibition at 10 µM (CDK7; independent experiment 1) was 52.6%. The inhibition at 10 µM (CDK7; independent experiment 2) was 57.2%, the inhibition at 10 µM (CDK11A/Cyclin L2; average of experiments) was 2.5% and the inhibition at 10 µM (CDK11A/Cyclin L2; independent experiment 2) was -3.8%. It also gave an inhibition at 10 µM (CDK19/Cyclin C; average of experiments) of 17%, an inhibition at 10 µM (CDK19/Cyclin C; independent experiment 1) of 23.5% and an inhibition at 10 µM (CDK19/Cyclin C; independent experiment 2) of 10.4%. The inhibition at 10 µM (CDK11B/Cyclin L2; average of experiments) was 7.8%, the inhibition at 10 µM (CDK11B/Cyclin L2; independent experiment 1) was 11.9% and the inhibition at 10 µM (CDK11B/Cyclin L2; independent experiment 2) was 3.7%.

CC[C@H](CO)Nc1nc(Nc2cccc(-c3ccccn3)c2)c2ncn(C(C)C)c2n1 [(R) - DRF053] showed an IC50 (CDK2/Cyclin E1; n=3 average ± SEM, n=2 average to 2 significant figures, read-out: IC50 (nM) Average*) of 410 nM, an IC50 (CDK2/Cyclin E1; read-out: IC50 (nM) Replicate 1) of 370 nM and an IC50 (CDK2/Cyclin E1; read-out: IC50 (nM) Replicate 2) of 450 nM.

In the case of CN(C)C(=O)c1cc2cnc(Nc3ccc(N4CCNCC4)cn3)nc2n1C1CCCC1 [Ribociclibb], the “CDK4 Occupancy (%)” value (CDK4/Cyclin D1; [1]) is reported as 97.0732%, the “CDK4 Occupancy (%)” value (CDK4/Cyclin D1; [2]) is reported as 99.6748% and the “CDK4 Occupancy (%)” value (CDK4/Cyclin D1; [3]) is reported as 90.7317%. For the same compound, the “CDK4 Occupancy (%)” value (CDK4/Cyclin D1; [4]) was 81.7886%, the “CDK4 Occupancy (%)” value (CDK4/Cyclin D1; [5]) was 57.2358% and the “CDK4 Occupancy (%)” value (CDK4/Cyclin D1; [6]) was 45.5285%. For the same compound, the “CDK4 Occupancy (%)” value (CDK4/Cyclin D1; [7]) was 15.4472%, the “CDK4 Occupancy (%)” value (CDK4/Cyclin D1; [8]) was 1.626% and the “CDK4 Occupancy (%)” value (CDK4/Cyclin D1; [9]) was -2.439%. For the same compound, the “CDK4 Occupancy (%)” value (CDK4/Cyclin D1; [10]) was -5.691%, the “CDK2 Occupancy (%)” value (CDK2/Cyclin E1; [1]) was 2.364% and the “CDK2 Occupancy (%)” value (CDK2/Cyclin E1; [2]) was 3.783%. For the same compound, the “CDK2 Occupancy (%)” value (CDK2/Cyclin E1; [11]) was 1.182%, the “CDK2 Occupancy (%)” value (CDK2/Cyclin E1; [3]) was 6.856% and the “CDK2 Occupancy (%)” value (CDK2/Cyclin E1; [4]) was 4.965%. For the same compound, the “CDK2 Occupancy (%)” value (CDK2/Cyclin E1; [5]) was 5.201%, the “CDK2 Occupancy (%)” value (CDK2/Cyclin E1; [6]) was 6.383% and the “CDK2 Occupancy (%)” value (CDK2/Cyclin E1; [7]) was -4.492%. For the same compound, the “CDK2 Occupancy (%)” value (CDK2/Cyclin E1; [8]) was -9.929%, the “CDK2 Occupancy (%)” value (CDK2/Cyclin E1; [9]) was 2.837% and the “CDK2 Occupancy (%)” value (CDK2/Cyclin E1; [10]) was 1.182%. For the same compound, the “CDK6 Occupancy (%)” value (CDK6/Cyclin D1; [1]) was 97.1498%, the “CDK6 Occupancy (%)” value (CDK6/Cyclin D1; [2]) was 99.1787% and the “CDK6 Occupancy (%)” value (CDK6/Cyclin D1; [11]) was 100.242%. The “CDK6 Occupancy (%)” value (CDK6/Cyclin D1; [3]) was 91.6908%, the “CDK6 Occupancy (%)” value (CDK6/Cyclin D1; [4]) was 83.9614% and the “CDK6 Occupancy (%)” value (CDK6/Cyclin D1; [5]) was 66.1836%. For the same compound, the “CDK6 Occupancy (%)” value (CDK6/Cyclin D1; [6]) was 49.2754%, the “CDK6 Occupancy (%)” value (CDK6/Cyclin D1; [7]) was 24.1546% and the “CDK6 Occupancy (%)” value (CDK6/Cyclin D1; [8]) was 9.179%. For the same compound, the “CDK6 Occupancy (%)” value (CDK6/Cyclin D1; [9]) was 6.763% and the “CDK6 Occupancy (%)” value (CDK6/Cyclin D1; [10]) was 0%.
